{"source": "patent US10208017B2", "about": "“Heterocycles capable of modulating T-cell responses, and methods of using same” (Nogra Pharma Limited, priority 2012, dated 2019)", "key": {"[1]": {"system": "Human peripheral blood lymphocytes (PBLs) stimulated with PHA", "test": "Inhibition of T lymphocyte proliferation (tritiated thymidine)", "assay_type": "cell-based"}, "[2]": {"system": "interaction between lymphocyte-specific protein tyrosine kinase (LCK) and its chaperone Hsp90", "test": "Immunoprecipitation of Lck and blotting for Hsp90", "assay_type": "cell-based, Human", "conditions": "Lck immunoprecipitation, PHA stimulated lymphocytes", "method": "(§1) Lymphocytes were seeded in a 6 well plate (1.0·10^7/well), pretreated for 10 minutes with S3.1, S3.4 or dexamethasone and stimulated for 10 minutes with PHA. The experiment was stopped by adding a large volume of ice cold PBS to the cells. The suspension was transferred to a tube, briefly spinned down in a centrifuge and the supernatant removed. The pellet was lysed by adding cold lysis buffer (0.1% NP40, 50 mM TrisHCl, 1 mM EDTA, 1 mM EGTA, 150 mM NaCl, 200 μM Na3VO4, 10 mM NaF and protease inhibitors) and incubating 20 minutes on ice.\nThe kinase Lck acts as a gate keeper to T cell receptor (TCR) related signaling as it is one of the first and most up stream kinases to be activated upon stimulation of the TCR. As downstream signaling of the TCR is inhibited by S3.1 and S3.4 treatment interactions with Lck were investigated by immunoprecipitating Lck and blotting for Hsp90. For immunprecipitation experiments 1.0·10^7 cells were used per condition. Cells were pelleted and lysed as described previously. The supernatant was precleared by adding 10 μl Protein A/G UltraLink resin (Pierce Biotechnology, Rockford, USA) for 30 minutes at 4° C. Beads were spinned down and discarded. Samples were incubated with 2 μg primary antibody and 25 μl beads for 2 hours at 4° C. Beads were washed with PBS, sample buffer was added and heated to 95° C. for 5 minutes."}, "phospho-LAT": {"system": "phospho-LAT", "test": "Western blot of TCR related signaling, phospho-LAT", "assay_type": "cell-based, Human", "conditions": "10 min pretreatment, 10 min PHA; compared to a stimulated untreated control", "method": "as §1\n(§2) To investigate the cell signaling events that are affected by treatment with S3.1 and S3.4, lysates were supplemented with sample buffer (188 mM Tris-Cl (pH 6.8), 3% SDS, 30% glycerol, 0.01% bromophenol blue, 15% β-mercaptoethanol), heated to 95° C. for 5 minutes, cooled on ice and sonicated. Samples were then run on 10% SDS-PAGE gel, blotted to PVDF membrane and incubated with antibodies for phospho-Zap70 (Cell Signaling Technology (Beverly, Mass.)) and phospho-LAT (Cell Signaling Technology (Beverly, Mass.)). To show equal loading of the samples the blot was incubated with an antibody directed against beta-actin (Santa Cruz Biotechnology (Heidelberg, Germany))."}, "phospho-Zap70": {"system": "phospho-Zap70", "test": "Western blot of TCR related signaling, phospho-Zap70", "assay_type": "cell-based, Human", "conditions": "10 min pretreatment, 10 min PHA; compared to a stimulated untreated control", "method": "as §1, §2"}}, "note": "“Also recorded” adds a separate entry of the source.", "data": [{"smiles": "c1ccc(CN2CCCC(c3ccnc(SCCN4CCCC4)n3)C2)cc1", "note": "(stereo not shown) [S3.4, 4-(1-benzylpiperidin-3-yl)-2-(2-(pyrrolidin-1-yl)ethylthio)-pyrimidine]", "values": [{"measurement": "effect on lymphocyte proliferation", "setting": "[1]", "result": "antiproliferative effect; also recorded: shows effect on lymphocyte proliferation"}, {"measurement": "interaction between LCK and its chaperone Hsp90", "setting": "[2]", "result": "lost"}, {"measurement": "phosphorylation level of scaffolding protein LAT", "setting": "phospho-LAT", "result": "lower phosphorylation levels"}, {"measurement": "phosphorylation level of kinase Zap70", "setting": "phospho-Zap70", "result": "lower phosphorylation levels"}]}]}
